Patent US8648115B2 (priority 2009, dated 2014)
Where “and” joins values, the source holds several entries; their conditions need not be identical. Equal entries are not always repeated. Where two headings read alike, the source gives them in different places.

Legend:
Phytophthora infestans [1] = assay: microbe, parasite or virus in culture; type: cell-based
Phytophthora infestans [2] = assay: microbe, parasite or virus in culture; type: cell-based; conditions: for IC50: Phytophthora infestans, read-out: Phytophtora infestans (mycelial growth) IC 50
Phytophthora infestans [3] = type: cell-based; conditions: lower concentrations (1-100 μM drops); three-week old mycelium; 24 h
Colletotrichum coccodes = Colletotrichum coccodes mycelial growth bioassay (OD590); type: cell-based
Procedure: FIG. 6: Inhibitory effect of (E)-4-oxohexadec-2-enoic acid on the mycelial growth of Colletotrichum coccodes. One-day old mycelium in 96-well plates was inoculated with different (E)-4-oxohexadec-2-enoic acid concentrations. The growth of C. coccodes was determined by measuring the OD590. The experiment was repeated twice, with identical results.
C. coccodes (CBS369.75) was grown for five days in 50 ml of liquid soybean medium in the dark at 18° C. on a rotary shaker. In order to isolate spores, all of the culture was centrifuged for 5 min at 2100 g and 4° C. The supernatant, which contained the spores, was recentrifuged (10 min, 6500 g, 4° C.). After the supernatant had been decantered off, the pelleted spores were washed carefully in deionized water, centrifuged as above and finally the spore concentration was adjusted to 1×10^5 spores/ml in soybean medium. To carry out the biotest, 200 μl of this spore solution were pipetted into each well of a 96-well plate (Nunc A/S, Denmark). The plates were incubated in an incubator for 24 h at 17° C. in the dark to allow germination. Then, test concentrations of (E)-4-oxohexadec-2-enoic acid were pipetted in as described above, with final concentrations of from 0.01 μM to 100 μM and 2% (v/v) ethanol. The plates were returned into the incubator and the increase in fungal biomass was determined by daily OD590 measurements.
To determine whether (E)-4-oxohexadec-2-enoic acid also has an inhibitory effect on the ascomycete c. coccodes, the causative organism of, inter alia, black dot disease of potato, a multiwell bioassay was set up. The growth of the fungus in liquid medium was determined on the basis of the measurement of the optical density (OD590). A medium containing soya was used for this purpose. One-day old mycelium was inoculated together with various concentrations of (E)-4-oxohexadec-2-enoic acid, and the growth of C. coccodes was determined every 24 h. […] Increasing concentrations reduced the fungal growth even further.

Phytophthora infestans [4] = type: in vivo; conditions: 3 days after inoculation
[5] = test system: Potato plants (Solanum tuberosum L. cv. Désirée); conditions: in vivo
[6] = Phytophthora infestans, read-out: Phytophthora infestans (spore germination) IC 50, spore germination
[7] = read-out: Phytophthora infestans (spore germination) IC 50, spore germination

For `CCCC(=O)/C=C/C(=O)O`, the IC50 (Phytophthora infestans [1]; [6]) was 14 nM and 0.0019 µg/mL.

With `O=C(O)/C=C/C(=O)CCCCCCCCCCF` the IC50 (Phytophthora infestans [1]; [6]) was 70 nM and 0.018 µg/mL and the IC50 (Phytophthora infestans [2]) was 80 µM and 20.7 µg/mL.

For `CCCCCCCCCCCCCCCCCCC(=O)/C=C/C(=O)O`, the IC50 (Phytophthora infestans [1]; [6]) was 100 nM and 0.035 µg/mL.

In the case of `CCCCCCCCCCCCC(=O)/C=C/C(=O)O` [(E)-4-oxohexadec-2-enoic acid], the “Viability of mature mycelium” value (Phytophthora infestans [3]) is reported as “clear negative effect on mycelia viability”, the “Growth of C. coccodes” value (Colletotrichum coccodes; 0.01 μM) is reported as “significant inhibitory effect” and the “Inhibition of growth of C. coccodes compared with the ethanol control” value (Colletotrichum coccodes; 1 μM) is reported as “more than half”. The “Growth of C. coccodes” value (Colletotrichum coccodes; 100 μM) was “complete inhibition”, the Spore germination (Phytophthora infestans [1]; 10 nM, 24 h) was “reduced” and the “Reduction of spore germination compared with the ethanol control” value (Phytophthora infestans [1]; 100 nM, 24 h) was “more than 50%”. For the same compound, the Spores germinated (Phytophthora infestans [1]; 1 μM, 24 h) was less than 10%, the Spore germination (Phytophthora infestans [1]; 3.7 μM, 24 h) was “prevented completely” and the Spore lysis (Phytophthora infestans [1]; 100 μM) was “spore lysis was observed”. For the same compound, the “Length of the germination tubes” value (Phytophthora infestans [1]; increasing concentrations) was “had an effect on the length of the germination tubes” and the “Mycelial growth (GFP fluorescence)” value (Phytophthora infestans [2]; 1 mM, one-day old mycelium) was “growth was inhibited”.

With `CCCCCC(=O)/C=C/C(=O)O` [drawing 5] the IC50 (Phytophthora infestans [1]; [6]) was 0.002 µg/mL and the IC50 (Phytophthora infestans [1]; [7]) was 12 nM.

`CCCCCC(=O)/C=C/C(=O)O` [drawing 6] gave an IC50 (Phytophthora infestans [1]; [6]) of 14 nM.

With `CCCCCCCCCCCCC(=O)/C=C/C(=O)O` [drawing 8] the IC50 (Phytophthora infestans [1]; [6]) was 70 nM and 0.0018 µg/mL and the IC50 (Phytophthora infestans [2]) was 450 µM and 121 µg/mL.

In the case of `CCCCCCCCCCCCC(=O)/C=C/C(=O)[O-].[K+]` [drawing 9], the IC50 (Phytophthora infestans [1]; [6]) is reported as 0.018 µg/mL and the IC50 (Phytophthora infestans [1]; [7]) is reported as 60 nM.

For `CCCCCCCCCCCCC(=O)/C=C/C(=O)[O-].[Na+]` [sodium (E)-4-oxohexadec-2-enoate, Sodium (E)-4-oxohexadec-2-enoate], the “Inhibition of infection with P. infestans compared with untreated control plants” value (Phytophthora infestans [4]; 10 μM spray 2 h before inoculation) was 80%, the “Inhibition of infection with P. infestans compared with untreated control plants” value (Phytophthora infestans [4]; 100 μM spray 2 h before inoculation) was 95% and the “Toxic effects on the leaves” value [5] was “no toxic effects on the leaves”.
